*1 amine or outer side, *2 acyl side, *3 side chain or, on linkers, in order; H or OH if unused. Where a SMILES comes first, the peptide text is derived from it. Bridges are numbered along the chain shown (N, C = ends). Roman numbers before positions name the chains, in order. Where no end group is shown, it is not given here. The star is where a group is joined. CO(CH2CH2O)5CH2CH2CO = O=C(CCOCCOCCOCCOCCOCCC(=O)[*:2])[*:1]; PEG12 = NCCOCCOCCOCCOCCOCCOCCOCCOCCOCCOCCOCCOCCC(=O)O; Biotin = O=C1N[C@H]2[C@H](CS[C@H]2CCCCC(=O)*)N1; PEG2 = NCCOCCOCCC(=O)O
Assays:
[1] = test system: Ring Finger Protein 43 (RNF43); type: binding; settings: SPR, DCP immobilized on streptavidin sensor, RNF43 as analyte
[2] = test system: Wnt signaling in HEK293 TOPbrite (TB) luciferase reporter cells; type: cell-based; settings: three independent runs
biotin-PEG12-MK1-3.6.10S = experiment: SPR
biotin-PEG2-MK1-3.6.10S = experiment: SPR

human ZNRF3 (free, in solution), sequence (Q9ULT6 56-936): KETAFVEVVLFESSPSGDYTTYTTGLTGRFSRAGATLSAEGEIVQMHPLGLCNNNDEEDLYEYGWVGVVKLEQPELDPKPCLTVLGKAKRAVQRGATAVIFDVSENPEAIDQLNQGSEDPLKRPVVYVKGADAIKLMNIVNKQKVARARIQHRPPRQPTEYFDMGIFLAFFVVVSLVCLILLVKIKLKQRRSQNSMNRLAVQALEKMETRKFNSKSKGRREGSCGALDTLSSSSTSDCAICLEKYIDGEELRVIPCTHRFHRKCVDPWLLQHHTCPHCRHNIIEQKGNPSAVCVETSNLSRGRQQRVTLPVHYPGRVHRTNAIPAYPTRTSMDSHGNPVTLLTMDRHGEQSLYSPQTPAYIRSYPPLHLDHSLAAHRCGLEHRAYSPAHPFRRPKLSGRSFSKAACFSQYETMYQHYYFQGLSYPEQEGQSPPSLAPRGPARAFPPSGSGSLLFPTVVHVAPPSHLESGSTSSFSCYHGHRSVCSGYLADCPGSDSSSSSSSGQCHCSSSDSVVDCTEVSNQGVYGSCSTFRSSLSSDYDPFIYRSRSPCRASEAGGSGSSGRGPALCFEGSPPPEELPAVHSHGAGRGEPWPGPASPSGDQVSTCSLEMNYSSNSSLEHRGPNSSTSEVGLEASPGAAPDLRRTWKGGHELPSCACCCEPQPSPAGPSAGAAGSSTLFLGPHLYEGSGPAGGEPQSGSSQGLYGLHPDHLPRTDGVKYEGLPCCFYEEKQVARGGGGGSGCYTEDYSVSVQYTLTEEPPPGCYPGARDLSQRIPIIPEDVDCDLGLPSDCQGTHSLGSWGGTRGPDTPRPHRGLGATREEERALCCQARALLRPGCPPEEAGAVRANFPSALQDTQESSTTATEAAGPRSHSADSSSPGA

Molecule: CC[C@H](C)[C@@H]1NC(=O)[C@@H]2CCCN2C(=O)[C@H](CCCNC(=N)N)NC(=O)[C@H](CCC(=O)O)NC(=O)[C@@H]2CSSC[C@@H]3NC(=O)[C@H](CCCCN)NC(=O)[C@H](CCCCN)NC(=O)[C@H](CC(N)=O)NC(=O)[C@H](CC(C)C)NC(=O)[C@H](CCCNC(=N)N)NC(=O)[C@H](CC(N)=O)NC(=O)[C@@H](NC(=O)[C@H](CO)NC(=O)CCOCCOCCNC(=O)CCCC[C@@H]4SC[C@@H]5NC(=O)N[C@@H]54)CSSC[C@H](NC(=O)[C@H](CSSC[C@@H](C(=O)N[C@@H](CCCNC(=N)N)C(=O)N4CCC[C@H]4C(=O)N[C@@H](CC(=O)O)C(=O)N[C@H](C(=O)NCC(=O)N4CCC[C@H]4C(=O)O)C(C)C)NC(=O)[C@H](Cc4ccc(O)cc4)NC(=O)[C@H](CCSC)NC(=O)[C@H](Cc4ccccc4)NC(=O)[C@H](CCCCN)NC(=O)[C@H](Cc4c[nH]c5ccccc45)NC(=O)CNC1=O)NC(=O)[C@H](CC(=O)O)NC(=O)[C@H](C)NC(=O)[C@H](CC(=O)O)NC(=O)[C@H](CO)NC(=O)[C@H](CC(N)=O)NC3=O)C(=O)N[C@@H](C)C(=O)N[C@@H](CC(N)=O)C(=O)N[C@@H](CCCCN)C(=O)N[C@@H](CCC(=O)O)C(=O)N[C@@H](CCCCN)C(=O)N2 [biotin-PEG2-MK1-3.6.10S] ({Biotin-PEG2}-SCNRLNKKCNSDADCCANKEKCERPIGWKFMYCRPDVGP-OH; disulfide 2-16, 9-22, 15-33; C-terminus assumed)
- binding to RNF43 [1]: did not bind

Molecule: CC[C@H](C)[C@@H]1NC(=O)[C@@H]2CCCN2C(=O)[C@H](CCCNC(=N)N)NC(=O)[C@H](CCC(=O)O)NC(=O)[C@@H]2CSSC[C@@H]3NC(=O)[C@H](CCCCN)NC(=O)[C@H](CCCCN)NC(=O)[C@H](CC(N)=O)NC(=O)[C@H](CC(C)C)NC(=O)[C@H](CCCNC(=N)N)NC(=O)[C@H](CC(N)=O)NC(=O)[C@@H](NC(=O)[C@H](CO)NC(=O)CCOCCOCCOCCOCCOCCOCCOCCOCCOCCOCCOCCOCCNC(=O)CCCC[C@@H]4SC[C@@H]5NC(=O)N[C@@H]54)CSSC[C@H](NC(=O)[C@H](CSSC[C@@H](C(=O)N[C@@H](CCCNC(=N)N)C(=O)N4CCC[C@H]4C(=O)N[C@@H](CC(=O)O)C(=O)N[C@H](C(=O)NCC(=O)N4CCC[C@H]4C(=O)O)C(C)C)NC(=O)[C@H](Cc4ccc(O)cc4)NC(=O)[C@H](CCSC)NC(=O)[C@H](Cc4ccccc4)NC(=O)[C@H](CCCCN)NC(=O)[C@H](Cc4c[nH]c5ccccc45)NC(=O)CNC1=O)NC(=O)[C@H](CC(=O)O)NC(=O)[C@H](C)NC(=O)[C@H](CC(=O)O)NC(=O)[C@H](CO)NC(=O)[C@H](CC(N)=O)NC3=O)C(=O)N[C@@H](C)C(=O)N[C@@H](CC(N)=O)C(=O)N[C@@H](CCCCN)C(=O)N[C@@H](CCC(=O)O)C(=O)N[C@@H](CCCCN)C(=O)N2 [biotin-PEG12-MK1-3.6.10S] ({Biotin-PEG12}-SCNRLNKKCNSDADCCANKEKCERPIGWKFMYCRPDVGP-OH; disulfide 2-16, 9-22, 15-33; C-terminus assumed)
- binding to RNF43 [1]: did not bind

Molecule: I: SCNRLNKKCNSDADCCANKEKCERPIGWKFMYCRPDVGP / II: SCNRLNKKCNSDADCCANKEKCERPIGWKFMYCRPDVGP (disulfide I:2-I:16, I:9-I:22, I:15-I:33, II:2-II:16, II:9-II:22, II:15-II:33; linker I:N-II:N via CO(CH2CH2O)5CH2CH2CO) [di-MK1-3.6.10S]
- activation of Wnt signaling in reporter assay (in words) [2]: able to induce Wnt signaling activation to a similar extent to the synthetic MK1-3.6.10 dimer

Molecule: human ZNRF3 (free, in solution) (from UniProt Q9ULT6 56-936) (natural protein)
- Kd (biotin-PEG12-MK1-3.6.10S): 0.118 µM
- Kd (biotin-PEG2-MK1-3.6.10S): 0.149 µM
